In test [1] the test system is Platinum SuperFi DNA polymerase. The class given is biochemical. The settings on record: for yield of PCR product: up to 20 μl of Agencourt XP magnetic beads in 50 μl PCR reaction, amine instead of 110 mM KCl. On the procedure:
PCR yield and tolerance for magnetic beads in PCR master mix with different amines compared to the control master mix (with KCl) was evaluated by amplification of a 1 kb fragment from 42 ng of human genomic DNA template. PCR was performed in 50 μl PCR reactions in the presence of increasing amounts of magnetic beads.
The PCR master mix (1×) concentration of KCl (110 mM) was substituted for solution comprising an amine.
Agencourt XP magnetic beads were used in the experiment. From 5 to 35 μl of magnetic beads were washed 2 times with 80% EtOH and dried (an imitation of a protocol for purifying nucleic acids). Dried magnetic beads were resuspended in 50 μl of PCR reaction (complete with PCR master mix, DNA matrix, and primers). The forward primer was SEQ ID No: 3, and the reverse primer was SEQ ID No: 4.
(§1) Products were detected by electrophoresis in a 1% TAE gels followed by staining with ethidium bromide.

Test [2] has the same test system. On the procedure: Yield and tolerance for urea in PCR master mix with different amines compared to the control master mix (with KCl) was evaluated by amplification of a 1 kb fragment from 42 ng of human genomic DNA template in 50 μl PCR reactions.
PCR master mix (1×) composition was 0.16 u/μL Platinum SuperFi DNA polymerase in 1× SuperFi buffer. In some experiments, 110 mM of KCl was substituted for solution comprising amines. […]
The PCR program used for the experiment is described in Table 4.
as §1

Test [3] has as its target Taq DNA polymerase (Thermus aquaticus, UniProt P19821). The class given is biochemical. An excerpt: A forward primer (SEQ ID No: 1) and a reverse primer (SEQ ID No: 2) were used with the PCR program described in Table 3. PCR products were detected by agarose gel electrophoresis followed by ethidium bromide staining
Test [4] relates to mutant Taq DNA polymerase.
Test [5] has as its system SuperFi DNA polymerase.
[6] abbreviates: PCR buffers containing amine, PCR buffer 1: 0.04%.
The mark [7] stands for this setting: sodium citrate 0-0.08%, PCR buffers with 10, 40 or 50 mM amine.
[8] abbreviates: urea 0-230 mM, PCR buffers with 10, 40 or 50 mM amine.

“Also recorded” adds a separate entry of the source. Structures can show the parent of a compound that is named as a salt. Where two headings read alike, the source gives them in different places.

Taq DNA polymerase, sequence (P19821 whole entry): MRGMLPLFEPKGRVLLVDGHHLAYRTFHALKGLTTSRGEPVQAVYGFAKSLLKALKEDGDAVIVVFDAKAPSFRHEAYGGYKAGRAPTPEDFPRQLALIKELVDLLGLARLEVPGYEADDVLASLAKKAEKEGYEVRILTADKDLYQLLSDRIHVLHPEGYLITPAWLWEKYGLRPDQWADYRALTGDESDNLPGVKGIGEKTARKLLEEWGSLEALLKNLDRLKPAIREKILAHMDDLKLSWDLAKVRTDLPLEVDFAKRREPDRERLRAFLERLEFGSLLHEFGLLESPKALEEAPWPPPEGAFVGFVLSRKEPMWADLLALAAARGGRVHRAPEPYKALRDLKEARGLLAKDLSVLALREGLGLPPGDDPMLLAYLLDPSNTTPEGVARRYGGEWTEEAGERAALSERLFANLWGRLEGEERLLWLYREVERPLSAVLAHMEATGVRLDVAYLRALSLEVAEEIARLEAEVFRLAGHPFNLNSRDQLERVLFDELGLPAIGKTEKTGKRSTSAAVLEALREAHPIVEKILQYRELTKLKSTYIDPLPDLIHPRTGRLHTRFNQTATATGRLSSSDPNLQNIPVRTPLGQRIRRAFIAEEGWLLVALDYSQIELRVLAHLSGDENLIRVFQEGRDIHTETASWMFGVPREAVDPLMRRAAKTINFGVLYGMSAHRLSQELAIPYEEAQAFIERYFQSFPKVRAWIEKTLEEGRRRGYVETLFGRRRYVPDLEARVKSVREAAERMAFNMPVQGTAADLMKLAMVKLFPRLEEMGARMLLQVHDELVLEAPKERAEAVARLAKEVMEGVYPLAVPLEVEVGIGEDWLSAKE

Consider `CCNCC.Cl` [diethylamine hydrochloride], for which, in test [1], the “yield of PCR product” value is “Increased yield”. Further, in test [2], the PCR yield result is reported as “much higher” and the “tolerance to urea compared to PCR buffer with KCl” value is on record as “Increased tolerance”. In test [3], the “PCR product yield compared to PCR buffer 1 without amines” value is “higher”, the “greater tolerance to sodium citrate compared to PCR buffer 1” value is given as 1.25 times, the “greater tolerance to urea compared with PCR buffer 1” value is listed as 2.5 times and the “sodium citrate concentration tolerated” value was found to be 0.05%. Further, the “PCR product yield compared with PCR buffer 1” value in test [3] (hydrochloride) is given as “increased; also recorded: Higher”.
With `CC(C)NC(C)C.Cl` [diisopropylamine hydrochloride], the “PCR product yield compared to PCR buffer 1 without amines” value in test [3] is listed as “higher”. The “sodium citrate concentration tolerated” value in test [3] (setting [6]) came to 0.05%. In addition, the “PCR product yield compared with PCR buffer 1” value in test [3] (setting [7]) is “Higher”; in test [3] (setting [8]), “increased”. Also, the “greater tolerance to sodium citrate compared to PCR buffer 1” value in test [3] (sodium citrate, PCR buffer 1: 0.04%) was found to be 1.25 times. Besides, in test [3] (urea, PCR buffer 1: 37 mM), the “greater tolerance to urea compared with PCR buffer 1” value was 2.5 times.
As to `CNC` [dimethylamine hydrochloride], in test [1], the “tolerated amount of magnetic beads in the PCR reaction” value is reported as “increased the tolerated amount” and the “yield of PCR product” value was “Increased yield”. Besides, the “PCR product yield in the presence of magnetic beads” value in test [1] (reaction buffer with 70, 80 or 90 mM KCl, part or all of the potassium salt replaced with amine, data not shown) was “increased”. In addition, in test [2], the PCR yield entry was “much higher”. The PCR product yield entry in test [4] is “increased”. For the same compound, in test [5], the PCR product yield entry was “increased”.
For the compound `CN(C)C` [trimethylamine hydrochloride], the “yield of PCR product” value in test [1] is on record as “Increased yield”. For the same compound, the “PCR product yield compared to PCR buffer 1 without amines” value in test [3] is listed as “higher”. In addition, the “sodium citrate concentration tolerated” value in test [3] (setting [6]) amounted to 0.04%. In addition, in test [3] (sodium citrate 0-0.08%, PCR buffers containing amine), the “tolerance to sodium citrate compared with PCR buffer 1” value was “same tolerance”. Moreover, the figures for the “PCR product yield compared with PCR buffer 1” value in test [3] (setting [7]) and in test [3] (setting [8]) were “Higher” and “increased”, respectively. For the same compound, the “resistance to urea compared with PCR buffer 1” value in test [3] (urea 0-230 mM, PCR buffers containing amine) was “same resistance”.

Source of the values: patent US20200392562A1, “[…] REACTION C[…]” (priority 2017, published 2020).
